The target in test [1] is T1, glucosylceramide synthase (Homo sapiens, UniProt Q16739).
T1 construct: Microsomes were isolated from A375 human melanoma cells; endogenous in cells; host or cells: A375 human melanoma cells (microsomal fraction, 100,000 g pellet)
T1 sequence (Q16739 1-394): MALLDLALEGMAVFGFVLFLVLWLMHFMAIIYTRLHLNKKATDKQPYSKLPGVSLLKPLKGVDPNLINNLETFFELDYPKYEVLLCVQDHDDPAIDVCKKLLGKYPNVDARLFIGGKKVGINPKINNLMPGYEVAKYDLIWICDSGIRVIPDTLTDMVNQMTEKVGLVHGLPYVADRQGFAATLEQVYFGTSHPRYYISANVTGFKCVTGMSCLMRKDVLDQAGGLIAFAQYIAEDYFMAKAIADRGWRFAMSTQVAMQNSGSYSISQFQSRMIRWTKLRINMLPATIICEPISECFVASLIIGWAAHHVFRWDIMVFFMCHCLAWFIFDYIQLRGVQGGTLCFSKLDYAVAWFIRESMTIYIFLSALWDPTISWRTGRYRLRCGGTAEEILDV
In words: microsomal assay measuring conversion of ceramide to glucosylceramide by HPLC (GCS IC50). The format is biochemical. As to conditions: concentration causing 50% inhibition of glucosylceramide synthase activity. The method, then:
Inhibition of glucosylceramide synthase activity for certain compounds of the invention were measured with 1) a microsomal assay that directly measures the conversion of ceramide to glucosylceramide by HPLC and 2) second, cell based, phenotypic assay that monitors cell surface expression of the downstream lipid GM3 by antibody mediated immunofluorescence. The cell based assay was performed in two different cell types, B16 and C32. Cell viability was also assessed in the second, cell-based assay.
The “Compound Number” in the table corresponds to the compound disclosed in the Example of the same number. The results of the microsomal assay are expressed as “GCS IC50”, which represents the concentration of the compound causing 50% inhibition of glucosylceramide synthase activity. The results of the cell based assays (performed in two different cell systems, i.e. B16 mouse melanoma or C32 human melanoma cells) are expressed as “GM3 B16 IC50” or “GM3 C32 IC50” for the B16 assay and the C32 assay, respectively. These values represent the concentration of the compound causing 50% inhibition of GM3 expression on the cell surface. The results of the viability assays are expressed as “Viability, B16 IC50” or “Viability, C32 IC50”, respectively. These values represent the concentration of the compound causing 50% cell death. Values greater than 10 represent a lack of cell death.

Test [2] concerns GM3 expression on the cell surface, B16 mouse melanoma cells. In words: cell based phenotypic assay, cell surface GM3 by antibody mediated immunofluorescence, B16 (GM3 B16 IC50). As to conditions: 50% inhibition of GM3 expression on the cell surface. Here is the method: (§1) The cell based assay was performed in two different cell types, B16 and C32. Cell viability was also assessed in the second, cell-based assay.
(§2) The “Compound Number” in the table corresponds to the compound disclosed in the Example of the same number. […] The results of the cell based assays (performed in two different cell systems, i.e. B16 mouse melanoma or C32 human melanoma cells) are expressed as “GM3 B16 IC50” or “GM3 C32 IC50” for the B16 assay and the C32 assay, respectively. […] The results of the viability assays are expressed as “Viability, B16 IC50” or “Viability, C32 IC50”, respectively. These values represent the concentration of the compound causing 50% cell death. Values greater than 10 represent a lack of cell death.

Test [3] deals with GM3 expression on the cell surface, C32 human melanoma cells. As to the kind of experiment: cell based phenotypic assay, cell surface GM3 by antibody mediated immunofluorescence, C32 (GM3 C32 IC50). As to conditions: 50% inhibition of GM3 expression on the cell surface. Here is the method: as §1, §2
The test system of the next test is B16 mouse melanoma cells. As to the kind of experiment: cell viability in the B16 cell-based assay (Viability, B16 IC50). Here is the method:
as §1, §2

Another test deals with C32 human melanoma cells. In words: cell viability in the C32 cell-based assay (Viability, C32 IC50). As to conditions: concentration causing 50% cell death, values greater than 10 represent a lack of cell death. The method, then:
as §1, §2

The mark [4] stands for this setting: Mus musculus, B16 mouse melanoma cells, read-out: GM3 B16 IC50.
Setting [5] is: Homo sapiens, C32 human melanoma cells, read-out: GM3 C32 IC50.
Where [6] appears, read: Mus musculus, B16, B16 cells, concentration causing 50% cell death, values greater than 10 represent a lack of cell death, read-out: Viability, B16 IC50.
The mark [7] stands for this setting: Homo sapiens, C32, C32 cells, read-out: Viability, C32 IC50.
Setting [8] is: B16 mouse melanoma cells, read-out: GM3 B16 IC50.
[9] abbreviates: C32 human melanoma cells, read-out: GM3 C32 IC50.
Where [10] appears, read: B16 cells, concentration causing 50% cell death, values greater than 10 represent a lack of cell death, read-out: Viability, B16 IC50.
Setting [11] is: C32 cells, read-out: Viability, C32 IC50.

Data on 15 compounds can be found in patent publication US12060349B2, “Glucosylceramide synthase inhibitors” (Genzyme Corporation, priority 2012, dated 2024).

For orientation: IC50 means the concentration needed to halve the response being measured.

Read-outs that look alike come from different tables or passages of the source.

On to `O=C(NC1CCN2CCC1CC2)N1CCN(c2ccc(-c3ccccc3)cc2)CC1` (stereo not drawn) [Example 3, 4-([1,1′-Biphenyl]-4-yl)-N-(1-azabicyclo[3.2.2]nonan-4-yl)piperazine-1-carboxamide], for which the half-maximal inhibitory concentration (IC50) in test [1] was found to be 10900 nM; in test [2] (setting [4]), 6840 nM; in test [3] (setting [5]), 1000 nM; in the test with B16 mouse melanoma cells (setting [6]), 4180 nM; with C32 human melanoma cells (setting [7]), 2510 nM.
With `CCC1(NC(=O)NC(C)(C)c2ccc(-c3ccc(OCCn4ccnn4)cc3)cc2)CN2CCC1CC2` (stereo not drawn) [Example 184, 1-(2-(4′-(2-(1H-1,2,3-Triazol-1-yl)ethoxy)-[1,1′-biphenyl]-4-yl)propan-2-yl)-3-(3-ethylquinuclidin-3-yl)urea], the IC50 turned out to be 21.1 nM in test [1]; 188 nM in test [2] (setting [4]); 3.46 nM in test [3] (setting [5]); 3160 nM in the test with B16 mouse melanoma cells (setting [6]); 1000 nM in the test on C32 human melanoma cells (setting [7]).
Consider `CC(C)(NC(=O)OC1CN2CCC1CC2)c1ccc(-c2ccc(C(=O)N3CCCCC3)cc2)cc1` (stereo not drawn) [Example 262, Quinuclidin-3-yl 2-(4′-(piperidine-1-carbonyl)biphenyl-4-yl)propan-2-ylcarbamate], for which the IC50 is 19.6 nM in test [1]; 112 nM in test [2] (Mus musculus, read-out: GM3 B16 IC50, B16 mouse melanoma cells); 3.5 nM in test [3] (Homo sapiens, read-out: GM3 C32 IC50, C32 human melanoma cells); no less than 10000 nM in the test on B16 mouse melanoma cells (Mus musculus, B16, read-out: Viability, B16 IC50); 1000 nM in the test on C32 human melanoma cells (Homo sapiens, C32, read-out: Viability, C32 IC50, C32 cells).
On to `CC1(NC(=O)N2CCC(c3cccc(-c4ccccc4)c3)CC2)CCN2CCC1CC2` (stereo not drawn) [Example 52, 4-([1,1′-Biphenyl]-3-yl)-N-(4-methyl-1-azabicyclo[3.2.2]nonan-4-yl)piperidine-1-carboxamide], for which the IC50 in test [1] came to 503 nM; in test [2] (setting [4]) it was 1060 nM; in test [3] (setting [5]) it was 337 nM; in the test with B16 mouse melanoma cells (setting [6]) it was 7360 nM; in the test with C32 human melanoma cells (setting [7]) it was 8640 nM.
In the case of `CNC(=O)c1cccc(Oc2cccc(C(C)(C)NC(=O)OC3CCN4CCC3CC4)c2)c1` (stereo not drawn) [Example 298, 1-Aza-bicyclo[3.2.2]nonan-4-yl 2-(3-(3-(methylcarbamoyl)phenoxy)phenyl)propan-2-ylcarbamate], the IC50 was 138 nM in test [1]; 1100 nM in test [2] (setting [4]); 30.8 nM in test [3] (setting [5]); no less than 10000 nM in the test on B16 mouse melanoma cells (setting [6]); 3160 nM with C32 human melanoma cells (setting [7]).
For `COCc1ccc(-c2ccnc(N3CCC(C)(C(=O)NC4(C)CCN5CCC4CC5)CC3)n2)cc1` (stereo not drawn) [Example 96, 1-(4-(4-(Methoxymethyl)phenyl)pyrimidin-2-yl)-4-methyl-N-(4-methyl-1-azabicyclo[3.2.2]nonan-4-yl)piperidine-4-carboxamide] the same measures were 7 nM, 145 nM, 0.804 nM, 3390 nM and 1000 nM.
For `COCCCc1ccc(-c2ccc(C3(NC(=O)OC4CCN5CCC4CC5)CC3)cc2)cc1` (stereo not drawn) [Example 212, 1-Azabicyclo[3.2.2]nonan-4-yl (1-(4′-(3-methoxypropyl)-[1,1′-biphenyl]-4-yl)cyclopropyl)carbamate] the same measures were 3.85 nM, 47.9 nM, 2.53 nM, 6360 nM and no less than 10000 nM.
For `COCCCOc1ccc(-c2ccnc(N3CCC(F)(C(=O)NC4(C)CCN5CCC4CC5)CC3)n2)cc1` (stereo not drawn) [Example 82, 4-Fluoro-1-(4-(4-(3-methoxypropoxy)phenyl)pyrimidin-2-yl)-N-(4-methyl-1-azabicyclo[3.2.2]nonan-4-yl)piperidine-4-carboxamide], in that order: 1.26 nM, 42.1 nM, 0.128 nM, 2790 nM and 1000 nM.
`CC1(NC(=O)C2CCN(c3nccc(-c4ccc(F)cc4)n3)CC2)CCN2CCC1CC2` (single isomer, unassigned) [Example 43, 1-(4-(4-Fluorophenyl)pyrimidin-2-yl)-N-(4-methyl-1-azabicyclo[3.2.2]nonan-4-yl)piperidine-4-carboxamide]: the IC50 worked out at 1.25 nM in test [1]; 6.54 nM in test [2] (setting [8]); 0.0655 nM in test [3] (setting [9]); 7140 nM with B16 mouse melanoma cells (setting [10]); 8920 nM in the test with C32 human melanoma cells (setting [11]).
Regarding `COCCOCc1ccc(-c2ccc(C3(NC(=O)N[C@@]4(C)CN5CCC4CC5)CC3)cc2)cc1` [Example 211, (R)-1-(1-(4′-((2-Methoxyethoxy)methyl)-[1,1′-biphenyl]-4-yl)cyclopropyl)-3-(3-methylquinuclidin-3-yl)urea], the IC50 was 938 nM in test [1]; 683 nM in test [2] (setting [4]); 72 nM in test [3] (setting [5]); no less than 10000 nM in the test on B16 mouse melanoma cells (setting [6]); 3160 nM in the test on C32 human melanoma cells (setting [7]).
As to `COCCCOc1ccc(-c2ccnc(N3CCC(C(=O)NC4(C)CCN5CCC4CC5)CC3)n2)cc1` (stereo not drawn) [Example 67, 1-(4-(4-(3-Methoxypropoxy)phenyl)pyrimidin-2-yl)-N-(4-methyl-1-azabicyclo[3.2.2]nonan-4-yl)piperidine-4-carboxamide], the IC50 in test [1] stood at 1.88 nM; in test [2] (setting [4]) it was 7.24 nM; in test [3] (setting [5]), 0.114 nM; in the test with B16 mouse melanoma cells (setting [6]), 4950 nM; with C32 human melanoma cells (setting [7]) it was 1000 nM.
As for `CCC1(NC(=O)N2CCN(c3cccc(-c4ccccc4)c3)CC2)CN2CCC1CC2` (stereo not drawn) [Example 21, 4-([1,1′-Biphenyl]-3-yl)-N-(3-ethylquinuclidin-3-yl)piperazine-1-carboxamide], the IC50 came out at 288 nM in test [1]; 168 nM in test [2] (setting [4]); 25.2 nM in test [3] (setting [5]); 7230 nM in the test on B16 mouse melanoma cells (setting [6]); 3160 nM in the test on C32 human melanoma cells (setting [7]).
Regarding `C[C@H]1CN(C(=O)NC2(C)CCN3CCC2CC3)CCN1c1nccc(-c2ccccc2)n1` (single isomer, unassigned) [Example 140], the IC50 in test [1] was found to be 46.9 nM; in test [2] (setting [8]) it was 9080 nM; in test [3] (setting [9]), 574 nM; in the test on B16 mouse melanoma cells (setting [10]) it was 6490 nM; in the test with C32 human melanoma cells (setting [11]), 3160 nM.
On to `COCCOc1ccc(-c2ccc(C3(NC(=O)NC4(C)CN5CCC4CC5)CC3)cc2)cc1` (stereo not drawn) [Example 163, 1-(1-(4′-(2-Methoxyethoxy)-[1,1′-biphenyl]-4-yl)cyclopropyl)-3-(3-methylquinuclidin-3-yl)urea], for which the IC50 stood at 8.49 nM in test [1]; 6.57 nM in test [2] (setting [4]); 0.539 nM in test [3] (setting [5]); 1000 nM in the test on B16 mouse melanoma cells (setting [6]); 173 nM in the test with C32 human melanoma cells (setting [7]).
Take `CC1(NC(=O)C2CCN(c3ccnc(-c4ccc(F)cc4)c3)CC2)CCN2CCC1CC2` (stereo not drawn) [Example 108, 1-(2-(4-Fluorophenyl)pyridin-4-yl)-N-(4-methyl-1-azabicyclo[3.2.2]nonan-4-yl)piperidine-4-carboxamide]: the IC50 in test [1] came to 80.8 nM; in test [2] (setting [4]), 1080 nM; in test [3] (setting [5]) it was 54.1 nM; in the test on B16 mouse melanoma cells (setting [6]), 5650 nM; with C32 human melanoma cells (setting [7]) it was 3160 nM.
